According to ChEMBL document CHEMBL5247634, “Design, synthesis and anticancer evaluation of selective 2,4-disubstituted pyrimidine CDK9 inhibitors” (Eur J Med Chem, 2022):
Active and inactive are the calls of the source. No cut-off for these calls is given here.

How the values were obtained:
PANC-1 [1] = assay: Induction of cell cycle arrest in human PANC-1 cells assessed as accumulation at S phase at 0.1 uM incubated for 24 hrs by propidium iodide staining based flow cytometric analysis (reference value: 17.48%); type: functional
PANC-1 [2] = assay: Antitumor activity against human PANC-1 cells xenografted in BALB/c nude mouse assessed as reduction in tumor growth rate at 20 mg/kg, ip administered for every other day for 4 weeks relative to control; type: functional; set-up: scale not given: the % may be the effect or the level left
A-431 = assay: Antiproliferative activity against human A-431 cells assessed as cell growth inhibition measured after 72 hrs by MTT assay; type: functional, cell-based; settings: A-431, 72 h
PANC-1 [3] = assay: Induction of apoptosis in human PANC-1 cells assessed as early apoptotic cells at 0.5 uM incubated for 48 hrs by Annexin-V-FITC/PI staining based flow cytometric analysis (reference value: 2.21%); type: functional
CDK9/cyclin T1 = CDK9/cyclin T1 (Homo sapiens, UniProt P50750); assay: Inhibition of CDK9/cyclin T1 (unknown origin) using as PDKtide substrate incubated for 1 hr in presence of ATP by ADP-glo luminescent assay; type: protein-complex assay
PANC-1 [4] = assay: Induction of cell cycle arrest in human PANC-1 cells assessed as accumulation at S phase at 2.5 uM incubated for 24 hrs by propidium iodide staining based flow cytometric analysis (reference value: 17.48%); type: functional
L02 = assay: Antiproliferative activity against human L02 cells assessed as cell growth inhibition measured after 72 hrs by MTT assay; type: functional, cell-based; settings: L02, 72 h
[5] = Toxicity in BALB/c nude mouse assessed as no obvious change in body weight at 5 to 20 mg/kg, ip administered for every other day for 4 weeks; type: organism-based; settings: in vivo, 672 h, dose 5-20 mg/kg
[6] = target: Cyclin-dependent kinase 2/cyclin A (Homo sapiens, UniProt P24941); assay: Inhibition of CDK2/cyclin A (unknown origin) incubated for 1 hr in presence of ATP by ADP-glo luminescent assay; type: protein-complex assay
PANC-1 [7] = assay: Induction of apoptosis in human PANC-1 cells assessed as necrotic cells at 0.5 uM incubated for 48 hrs by Annexin-V-FITC/PI staining based flow cytometric analysis (reference value: 0.59%); type: functional
PANC-1 [8] = assay: Induction of apoptosis in human PANC-1 cells assessed as late apoptotic cells at 0.5 uM incubated for 48 hrs by Annexin-V-FITC/PI staining based flow cytometric analysis (reference value: 0.22%); type: functional
PANC-1 [9] = assay: Induction of apoptosis in human PANC-1 cells assessed as necrotic cells at 2.5 uM incubated for 48 hrs by Annexin-V-FITC/PI staining based flow cytometric analysis (reference value: 0.59%); type: functional
PANC-1 [10] = assay: Induction of apoptosis in human PANC-1 cells assessed as viable cells at 0.1 uM incubated for 48 hrs by Annexin-V-FITC/PI staining based flow cytometric analysis (reference value: 97.0%); type: functional; settings: read-out: Activity
Homo sapiens = organism: Homo sapiens; assay: Selectivity index, ratio of IC50 for CDK2/cyclin A (unknown origin) to IC50 for CDK9/cyclin T1 (unknown origin)
A549 = assay: Antiproliferative activity against human A549 cells assessed as cell growth inhibition measured after 72 hrs by MTT assay; type: functional, cell-based; settings: A549, 72 h
PANC-1 [11] = assay: Induction of cell cycle arrest in human PANC-1 cells assessed as accumulation at G1 phase at 2.5 uM incubated for 24 hrs by propidium iodide staining based flow cytometric analysis (reference value: 80.36%); type: functional
NCI-H1975 = assay: Antiproliferative activity against human NCI-H1975 cells assessed as cell growth inhibition measured after 72 hrs by MTT assay; type: functional, cell-based; settings: NCI-H1975, 72 h
[12] = Toxicity in BALB/c nude mouse xenografted with human PANC-1 cells assessed as mortality at 5 to 20 mg/kg, ip administered for every other day for 4 weeks; type: organism-based; settings: in vivo, 672 h, dose 5-20 mg/kg
PANC-1 [13] = assay: Inhibition of CDK9 expression in human PANC-1 cells incubated for 24 hrs by Western blot analysis; type: functional, cell-based; settings: dose 0.1-2.5 µM
PANC-1 [14] = assay: Antiproliferative activity against human PANC-1 cells assessed as cell growth inhibition measured after 72 hrs by MTT assay; type: functional, cell-based; settings: PANC-1, 72 h
HCT-116 = assay: Antiproliferative activity against human HCT-116 cells assessed as cell growth inhibition measured after 72 hrs by MTT assay; type: functional, cell-based; settings: HCT-116, 72 h
PANC-1 [15] = assay: Induction of cell cycle arrest in human PANC-1 cells assessed as accumulation at G1 phase at 0.5 uM incubated for 24 hrs by propidium iodide staining based flow cytometric analysis (reference value: 80.36%); type: functional
PANC-1 [16] = assay: Antitumor activity against human PANC-1 cells xenografted in BALB/c nude mouse assessed as reduction in tumor growth rate at 10 mg/kg, ip administered for every other day for 4 weeks relative to control; type: functional; set-up: scale not given: the % may be the effect or the level left
PANC-1 [17] = assay: Antitumor activity against human PANC-1 cells xenografted in BALB/c nude mouse assessed as reduction in tumor growth rate at […], ip administered for every other day for 4 weeks relative to control; type: functional; set-up: scale not given: the % may be the effect or the level left
PANC-1 [18] = assay: Induction of cell cycle arrest in human PANC-1 cells assessed as accumulation at G1 phase at 0.1 uM incubated for 24 hrs by propidium iodide staining based flow cytometric analysis (reference value: 80.36%); type: functional
PANC-1 [19] = assay: Induction of apoptosis in human PANC-1 cells assessed as late apoptotic cells at 0.1 uM incubated for 48 hrs by Annexin-V-FITC/PI staining based flow cytometric analysis (reference value: 0.22%); type: functional
PANC-1 [20] = assay: Induction of apoptosis in human PANC-1 cells assessed as necrotic cells at 0.1 uM incubated for 48 hrs by Annexin-V-FITC/PI staining based flow cytometric analysis (reference value: 0.59%); type: functional
PANC-1 [21] = assay: Induction of cell cycle arrest in human PANC-1 cells assessed as accumulation at G2M phase at 2.5 uM incubated for 24 hrs by propidium iodide staining based flow cytometric analysis (reference value: 2.16%); type: functional
PANC-1 [22] = assay: Induction of cell cycle arrest in human PANC-1 cells assessed as accumulation at G2M phase at 0.5 uM incubated for 24 hrs by propidium iodide staining based flow cytometric analysis (reference value: 2.16%); type: functional
PANC-1 [23] = assay: Induction of cell cycle arrest in human PANC-1 cells assessed as accumulation at S phase at 0.5 uM incubated for 24 hrs by propidium iodide staining based flow cytometric analysis (reference value: 17.48%); type: functional
PANC-1 [24] = assay: Induction of apoptosis in human PANC-1 cells assessed as viable cells at 2.5 uM incubated for 48 hrs by Annexin-V-FITC/PI staining based flow cytometric analysis (reference value: 97.0%); type: functional; settings: read-out: Activity
PANC-1 [25] = assay: Induction of cell cycle arrest in human PANC-1 cells assessed as accumulation at G2M phase at 0.1 uM incubated for 24 hrs by propidium iodide staining based flow cytometric analysis (reference value: 2.16%); type: functional
[26] = Downregulation of RNAPII phosphorylation level in human PANC-1 cells at 2.5 uM incubated for 24 hrs by Western blot analysis; type: functional
PANC-1 [27] = assay: Downregulation of RNAPII phosphorylation level in human PANC-1 cells at 0.5 uM incubated for 24 hrs by Western blot analysis; type: functional, cell-based
PANC-1 [28] = assay: Induction of apoptosis in human PANC-1 cells assessed as early apoptotic cells at 0.1 uM incubated for 48 hrs by Annexin-V-FITC/PI staining based flow cytometric analysis (reference value: 2.21%); type: functional
PANC-1 [29] = assay: Induction of apoptosis in human PANC-1 cells assessed as viable cells at 0.5 uM incubated for 48 hrs by Annexin-V-FITC/PI staining based flow cytometric analysis (reference value: 97.0%); type: functional; settings: read-out: Activity
PANC-1 [30] = assay: Induction of apoptosis in human PANC-1 cells assessed as late apoptotic cells at 2.5 uM incubated for 48 hrs by Annexin-V-FITC/PI staining based flow cytometric analysis (reference value: 0.22%); type: functional
PANC-1 [31] = assay: Induction of apoptosis in human PANC-1 cells assessed as early apoptotic cells at 2.5 uM incubated for 48 hrs by Annexin-V-FITC/PI staining based flow cytometric analysis (reference value: 2.21%); type: functional
[32] = Toxicity in BALB/c nude mouse xenografted with human PANC-1 cells assessed as no tissue lesions and necrosis at 5 to 20 mg/kg, ip administered for every other day for 4 weeks; type: organism-based; settings: in vivo, 672 h, dose 5-20 mg/kg

Sequence of CDK9/cyclin T1 (O60563 whole entry): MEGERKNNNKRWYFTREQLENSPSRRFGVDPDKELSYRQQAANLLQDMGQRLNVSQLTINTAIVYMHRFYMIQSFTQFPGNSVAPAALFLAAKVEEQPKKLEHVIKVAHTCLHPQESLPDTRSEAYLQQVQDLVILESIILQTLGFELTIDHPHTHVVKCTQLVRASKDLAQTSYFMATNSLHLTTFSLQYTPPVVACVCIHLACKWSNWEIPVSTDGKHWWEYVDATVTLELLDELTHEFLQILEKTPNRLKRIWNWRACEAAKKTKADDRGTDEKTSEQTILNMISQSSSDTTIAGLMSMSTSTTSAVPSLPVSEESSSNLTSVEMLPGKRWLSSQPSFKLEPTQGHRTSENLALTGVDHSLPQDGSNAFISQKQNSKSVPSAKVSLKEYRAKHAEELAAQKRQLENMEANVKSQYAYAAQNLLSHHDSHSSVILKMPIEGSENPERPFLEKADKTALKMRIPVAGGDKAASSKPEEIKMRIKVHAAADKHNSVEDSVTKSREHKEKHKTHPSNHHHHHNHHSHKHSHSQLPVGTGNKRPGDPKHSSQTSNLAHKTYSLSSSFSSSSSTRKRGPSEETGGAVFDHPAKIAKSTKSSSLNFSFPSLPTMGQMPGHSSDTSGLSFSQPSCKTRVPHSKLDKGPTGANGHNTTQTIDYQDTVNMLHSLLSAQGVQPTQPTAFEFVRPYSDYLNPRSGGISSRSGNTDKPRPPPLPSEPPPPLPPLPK
Sequence of CDK9/cyclin T1 (P50750 whole entry): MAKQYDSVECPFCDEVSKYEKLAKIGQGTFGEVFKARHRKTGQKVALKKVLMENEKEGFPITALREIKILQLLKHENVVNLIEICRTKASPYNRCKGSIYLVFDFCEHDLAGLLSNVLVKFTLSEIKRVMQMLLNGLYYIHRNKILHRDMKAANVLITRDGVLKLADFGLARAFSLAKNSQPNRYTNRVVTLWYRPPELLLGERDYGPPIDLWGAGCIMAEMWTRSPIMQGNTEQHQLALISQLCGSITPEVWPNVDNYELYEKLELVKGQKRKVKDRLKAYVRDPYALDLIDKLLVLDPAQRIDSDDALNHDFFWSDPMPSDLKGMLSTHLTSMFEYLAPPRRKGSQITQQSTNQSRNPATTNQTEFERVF

## CN(C)CCNC(=O)c1ccc(Nc2nccc(-c3ccc(F)cc3OCc3ccccc3)n2)cc1
PANC-1 [1]
  Activity: 22.92%
PANC-1 [2]
  Activity: 54.2%
A-431
  IC50: 100 nM
PANC-1 [3]
  Activity: 8.41%
CDK9/cyclin T1
  IC50: 10.4 nM
PANC-1 [4]
  Activity: 19.73%
L02
  IC50: 1430 nM
[5]
  Activity: Non-Toxic
[6]
  IC50: 876 nM
PANC-1 [7]
  Activity: 5.78%
PANC-1 [8]
  Activity: 45.7%
PANC-1 [9]
  Activity: 4.35%
PANC-1 [10]
  viability at 0.1 µM: 52.4%
Homo sapiens
  Selectivity Index: 84.3
A549
  IC50: 660 nM
PANC-1 [11]
  Activity: 46.01%
NCI-H1975
  IC50: 430 nM
[12]
  Activity: Non-Toxic
PANC-1 [13]
  inhibition: Dose-Dependent Effect
PANC-1 [14]
  IC50: 80 nM
HCT-116
  IC50: 90 nM
PANC-1 [15]
  Activity: 53.9%
PANC-1 [16]
  Activity: 32.6%
PANC-1 [17]
  Activity: 6.2%
PANC-1 [18]
  Activity: 55.25%
PANC-1 [19]
  Activity: 19.9%
PANC-1 [20]
  Activity: 4.07%
PANC-1 [21]
  Activity: 34.26%
PANC-1 [22]
  Activity: 25.85%
PANC-1 [23]
  Activity: 20.25%
PANC-1 [24]
  viability at 2.5 µM: 29.8%
PANC-1 [25]
  Activity: 21.83%
[26]
  inhibition at 2.5 µM: 100%
PANC-1 [27]
  Activity: Active
PANC-1 [28]
  Activity: 23.7%
PANC-1 [29]
  viability at 0.5 µM: 40.1%
PANC-1 [30]
  Activity: 57.4%
PANC-1 [31]
  Activity: 8.44%
[32]
  Activity: Non-Toxic
